Test results published in publication PMC9775310, “Anticancer, Antimicrobial, and Antioxidant Activities of Organodiselenide-Tethered Methyl Anthranilates” (Biomolecules, 2022).
Converted amounts (≈) assume the structure as drawn. Like-named read-outs stand apart in the source and are kept apart here.

Key:
[1] = system: Staphylococcus aureus; experiment: Agar well diffusion assay, S. aureus; assay type: cell-based; conditions: read-out: S. aureus ZID
[2] = system: Staphylococcus aureus; experiment: MIC by microdilution method, S. aureus; assay type: cell-based; conditions: read-out: MIC S. aureus
Description: (§1) According to the reported method, the OSe agents’ antimicrobial properties were estimated against Staphylococcus aureus (S. aureus), Escherichia coli (E. coli), and Candida albicans (C. albicans) microbial strains using the agar well diffusion assay. In addition, the MICs (in […]) were also recorded via the microdilution method following the reported procedure. Experimental details can be found in the Supplementary Materials Section S1 [16, 18].
(§2) In general, C. Albicans fungus and S. aureus gram-positive bacteria were more sensitive than gram-negative bacteria toward the OSe compounds. […]
(§3) Briefly, a concentration of 1 mM was prepared for each compound by dissolving in DMSO. […]
(§4) Furthermore, the MICs (in µM) were determined by the microdilution method according to the
1.1.3. […]

[3] = system: Escherichia coli; experiment: Agar well diffusion assay, E. coli; assay type: cell-based; conditions: read-out: E. coli ZID
[4] = system: Staphylococcus aureus; experiment: Agar well diffusion assay, S. aureus; assay type: cell-based; conditions: ratio of inhibition zone to that of positive control
Description: as §1
(§5) The promising anticancer activities manifested by the OSe compounds encourage us to further evaluate their respective antimicrobial activity against a panel of gram-negative bacteria (e.g., E. coli) and the gram-positive bacteria (e.g., S. aureus) as well as a fungal strain (C. albicans) using the method of agar diffusion. The clotrimazole antifungal and the ampicillin antibacterial drugs were used as the positive controls. […]
(§6) 1.1.2. The antimicrobial activity
(§7) The antimicrobial activities of the OSe compounds were evaluated against C. albicans yeast as well as E. coli gram-negative and S. aureus gram-positive bacteria employing the agar well diffusion assay [ 4 ] .
(§8) Briefly, a concentration of 1 mM was prepared for each compound by dissolving in DMSO.
(§9) Paper discs of standard size […] were sterilized in an autoclave and soaked in 9 µL of the test compounds, and placed in the Petri dishes, which in turn contain a nutrient media (agar 9 g, peptone 5 g, and beef extract 3 g) seeded with the dedicated strain. Incubation lasted for 13 h at 36 0C. Experiments were replicated three times and the antifungal clotrimazole and antibiotic ampicillin were used as standards. The % activity index for the complex was determined and depicted in table 2. […]

[5] = system: Escherichia coli; experiment: MIC by microdilution method, E. coli; assay type: cell-based; conditions: read-out: MIC E. coli
Description: as §1, §2, §3, §4
1.1.3. […]

[6] = system: Escherichia coli; experiment: Agar well diffusion assay, E. coli; assay type: cell-based; conditions: ratio of inhibition zone to that of positive control
Description: as §1, §5, §6, §7, §8, §9

[7] = system: Candida albicans; experiment: Agar well diffusion assay, C. albicans; assay type: cell-based; conditions: read-out: C. Albicans ZID
[8] = system: Candida albicans; experiment: MIC by microdilution method, C. albicans; assay type: cell-based; conditions: read-out: MIC C. Albicans
Description: as §1, §2, §3, §4
1.1.3. […]

[9] = system: Candida albicans; experiment: Agar well diffusion assay, C. albicans; assay type: cell-based; parameters: concentration or dose not given beside the values; conditions: ratio of inhibition zone to that of positive control
Description: as §1, §5, §6, §7, §8, §9

[10] = system: WI-38 cells; experiment: MTT assay, cytotoxicity against normal WI-38 fibroblasts; assay type: cell-based; conditions: Homo sapiens, WI-38, 24 h, read-out: WI38 IC50
Description: (§10) The anticancer activity of the OSe was performed using the MTT assay against liver (HepG2) and breast (MCF-7) carcinoma cells, as well as normal WI-38 cells following the reported method. Experimental details can be found in the Supplementary Materials Section S1.
(§11) Accordingly, the anticancer properties of the OSe hybrids were assessed against two cancer cell lines, i.e., HepG2 and MCF-7 cells. Furthermore, their corresponding cytotoxicity was also estimated against the immortalized lung WI-38 fibroblasts employing the MTT assay. The Adriamycin cancer drug was used as the positive control.
(§12) 1.1. The biological assays
(§13) 1.1.1. The anticancer activity
(§14) The breast adenocarcinoma (MCF-7), Hepatocellular carcinoma (HEPG-2), and normal fibroblast (WI-38) cells were obtained from ATCC via Holding company for biological products and vaccines (VACSERA), Cairo, Egypt. The reagents […] medium, MTT, DMSO, and fetal bovine serum was obtained from Sigma Aldrich. Dulbecco’s modified Eagle’s medium was used as the culture medium for the cells, and the cytotoxicity was evaluated using the reported MTT assay. Doxorubicin was used as the positive reference, and the IC50 values were obtained from the corresponding dose-response curve.
(§15) This colorimetric assay is based on converting the yellow tetrazolium bromide (MTT) to a purple formazan derivative by mitochondrial succinate dehydrogenase in viable cells. Cell lines were cultured in […] medium with 10% fetal bovine serum. Antibiotics added were 100 units/ml penicillin and 100µg/ml streptomycin at 37 C in a 5% Co2 incubator. The cell lines were seeded in a 96-well plate at a density of 1.0x10^4 cells/well. at 37 C for 48 h under 5% […]
(§16) Finally, dimethyl sulfoxide (DMSO) in the volume of 100 µl is added to each well to dissolve the purple formazan formed. […]

[11] = system: HepG2 cells; experiment: MTT assay, antiproliferative activity, HepG2 liver carcinoma cells; assay type: cell-based; conditions: Homo sapiens, HepG2, 24 h, read-out: HepG2 IC50
Description: as §10
Accordingly, the anticancer properties of the OSe hybrids were assessed against two cancer cell lines, i.e., HepG2 and MCF-7 cells. Furthermore, their corresponding cytotoxicity was also estimated against the immortalized lung WI-38 fibroblasts employing the MTT assay. The Adriamycin cancer drug was used as the positive control. The concentration inhibition, 50%, needed to kill half of the cells (IC50) was estimated from (concentration-response plots) and tabulated in Table 1.
as §12, §13, §14, §15
Finally, dimethyl sulfoxide (DMSO) in the volume of 100 µl is added to each well to dissolve the purple formazan formed. The colorimetric assay is measured and recorded at an absorbance of 570 nm using a plate reader (EXL 800, USA). […]

[12] = system: MCF-7 cells; experiment: MTT assay, antiproliferative activity, MCF-7 breast carcinoma cells; assay type: cell-based; conditions: Homo sapiens, MCF7, 24 h, read-out: MCF7 IC50
Description: as §10, §11, §12, §13, §14, §15, §16

[13] = ABTS radical scavenging bioassay; conditions: for ABTS radical scavenging activity: 50 µL, 1 mM in MeOH, ABTS solution 60 µL, 734 nm; for IC50: dose needed to decrease the absorbance by 50%
Excerpt: (§17) The DPPH and ABTS in vitro bioassays were used to assess the OSe antioxidant activities following the reported method. Experimental details can be found in the Supplementary Materials Section S1.
(§18) The redox modulation activities of the OSe compounds were extensively explored over the last decade owing to their chemopreventive and antioxidant potency. The latter is usually investigated by the ABTS and DPPH in vitro tests employing vitamin C as the positive control. The OSe compound’s magnitude estimated the antioxidant potential to decolorize the distinctive colors of the DPPH^. and ABTS^. radicals at 517 nm and 734 nm, respectively (Figure 2).
(§19) Figure 2 The OSe compounds redox activities assessment using the ABTS and DPPH experiments. All tests are mean ± SD. ABTS experiment: absorbance was followed at 734 nm for OSe compounds (50 µL, 1 mM in MeOH) and ABTS solution (60 µL). DPPH experiment: Absorbance was monitored after 30 min at 517 nm for OSe compounds (200 µL, 1 mM in MeOH) and DPPH (400 µL). […]
1.1.3.2. The ABTS bioassay
The antioxidant activity of the investigated compounds was assessed using 2,2’-azino-bis(3-ethylbenzothiazoline-6-sulphonic acid (ABTS) method. The radical cation derived from ABTS was prepared by the reaction of 60 mM ABTS solution with 0.3 M manganese dioxide solution in 0.1M phosphate buffer, pH 7. Then, the mixture was shaken, centrifuged, filtered, and the absorbance (Acontrol) of the resulting green-blue solution (ABTS radical solution) was measured at wavelength 734 nm. Then, […] of 1 mg/ml test compound in phosphate-buffered methanol was added. The absorbance (Atest) was measured. The reduction in color intensity was expressed as % inhibition. The % inhibition for each compound is calculated from the following equation
Inhibition% = (Acontrol-Asample)/(Acontrol)*100
Ascorbic acid (vitamin C) was used as a standard antioxidant (positive control). A blank sample was run without ABTS and using MeOH/phosphate buffer (1:1) instead of the sample. A negative control sample was run with MeOH/phosphate buffer (1:1) instead of a tested compound.

[14] = DPPH radical scavenging bioassay; conditions: for DPPH radical scavenging activity: 200 µL, 1 mM in MeOH, DPPH 400 µL, 30 min, 517 nm; for IC50: dose needed to decrease the absorbance by 50%
Excerpt: as §17, §18, §19
1.1.3. The antioxidant activity
1.1.3.1. The DPPH bioassay
The hydrogen atom or electron donation ability of the corresponding compounds was measured by estimating the bleaching of the purple color of a methanolic solution of DPPH [5]. This spectrophotometric assay uses stable DPPH. reagent. The sample was prepared by adding […] of the OSe compounds (1 mM in methanol) to […] DPPH in methanol. After 30 min of incubation in the dark, the absorbance was read against a blank at […]. Ascorbic acid (vitamin C) and ebselen were used as standard antioxidants (positive control). A blank sample was run without DPPH. A negative control sample was run using methanol instead of the sample. The radical scavenging activity was […]
using the following equation:
Inhibition%= (Ablank-Asample)/(Ablank)*100. […]

[15] = inhibition zone diameter, disks (6 mm) soaked with 20 μM

SMILES	S. aureus IA% (activity index) [4] [%]	E. coli IA% (activity index) [6] [%]	C. Albicans IA% (activity index) [9] [%]	zone of inhibition at 20 µM [1] [mm]	IC50 [10] [µM]	IC50 [11] [µM]	zone of inhibition at 20 µM [7] [mm]	zone of inhibition at 20 µM [3] [mm]	IC50 [12] [µM]	ABTS radical scavenging activity [13] [%]	DPPH radical scavenging activity [14] [%]	further results
CC1(C)S[C@@H]2[C@H](NC(=O)[C@H](N)c3ccccc3)C(=O)N2[C@H]1C(=O)O [Ampicillin, reference compound]	100	100	–	–	–	–	–	–	–	–	–	zone of inhibition at 20 µM [1, 15]: 21 mm; MIC ([2]; microdilution): 1 µM (≈ 0.349 µg/mL); zone of inhibition at 20 µM [3, 15]: 23 mm; MIC ([5]; microdilution): 0.5 µM (≈ 0.175 µg/mL)
Clc1ccccc1C(c1ccccc1)(c1ccccc1)n1ccnc1 [Clotrimazole, reference compound]	–	–	100	–	–	–	–	–	–	–	–	zone of inhibition at 20 µM [7, 15]: 24 mm; MIC ([8]; microdilution): 2 µM (≈ 0.69 µg/mL)
COC(=O)c1cc([Se]C#N)ccc1N [Compound 4, Methyl 2-amino-5-selenocyanatobenzoate]	76.2	60.9	75	16	52.6 ± 3.1	11.2 ± 1	18	14	23.4 ± 1.8	73	81	melting point: 118 to 119 °C
COC(=O)c1cc([Se][Se]c2ccc(N)c(C(=O)OC)c2)ccc1N [Compound 5, dimethyl 5,5′-diselanediylbis(2-aminobenzoate)]	85.7	82.6	87.5	18	35.9 ± 2.3	7.08 ± 0.6	21	19	9.89 ± 0.7	86	92	–
CCOC(=O)C(C#N)=NNc1ccc([Se][Se]c2ccc(NN=C(C#N)C(=O)OCC)c(C(=O)OC)c2)cc1C(=O)OC [Compound 6, dimethyl 5,5′-diselanediylbis(2-(2-(1-cyano-2-ethoxy-2-oxoethylidene) hydrazinyl) benzoate)]	76.2	69.6	70.8	16	42.5 ± 2.6	16.2 ± 1.2	17	16	15.9 ± 1.2	69	85	melting point: 105 to 106 °C
COC(=O)c1cc([Se]C)ccc1N [Compound 14, methyl 2-amino-5-(methylselanyl) benzoate]	90.5	91.3	100	19	62.4 ± 3.6	3.57 ± 0.1	24	21	5.64 ± 0.3	91	96	MIC [2]: 2 µM (≈ 0.488 µg/mL); MIC [5]: 0.5 µM (≈ 0.122 µg/mL); MIC [8]: 2 µM (≈ 0.488 µg/mL); IC50 [13]: 29.14 ± 0.2 µM; IC50 [14]: 18.67 ± 0.12 µM
O=C1O[C@H]([C@@H](O)CO)C(O)=C1O [Vitamin C, Ascorbic acid, reference compound]	–	–	–	–	–	–	–	–	–	–	95	IC50 [13]: 28.16 ± 0.19 µM; IC50 [14]: 19.18 ± 0.13 µM
